Reference: US9504676B2, “Molecules inhibiting a metabolic pathway involving the Syk protein tyrosine kinase and method for identifying said molecules” (CENTRE NATIONAL DE LA RECHERCHE SCIENTIFIQUE, priority 2008, dated 2016)

Assays:
BALB/c mice = experiment: IgE-induced passive systemic anaphylaxis (PSA); assay type: in vivo
Experimental: Finally, to extend these observations to mast cell functions in vivo, the inventors tested the effects of C-13 on passive systemic (PSA) and cutaneous anaphylaxis (PCA) induced in BALB/c mice by administering DNP-specific IgE molecules followed by intravenous stimulation with DNP-KLH hapten. […] The intensity of systemic anaphylaxis was determined by measuring both the drop in body temperature and the increase in vascular permeability following antigen administration.
• 1) Chemical products and antibodies. A chemical bank of 3000 molecules (a varied subset) was acquired from ChemBridge, Inc. (San Diego, Calif.). Stocks of solutions of small molecules were prepared at a rate of 10 mM in DMSO (dimethylsulphoxide), except for C-13 (methyl 2-{5-[(3-benzyl-4-oxo-2-thioxo-1,3-thiazolidin-5-ylidene)methyl]-2-furyl}benzoate, ChemBridge ID No. 6197026) prepared in DMF (dimethylformamide). Unless specified otherwise, all the reagents were supplied by Sigma. […] The binding of G4G11 with Syk was assessed by adding the 9E10 monoclonal antibody conjugated with HRP detecting the amino acid sequence EQKLISEEDLN of human c-myc protein located at the C-terminal end of the scFv fragment. To generate Syk mutants, targeted mutagenesis was used on GST:Syk 6-242 protein and the binding of G4G11 with the mutants was assessed in the presence of 5 μM of C-13. • 3) Cells, culture conditions and functional tests. […]

SLP-76 = experiment: Phosphorylation of SLP-76 (phospho-specific antibodies); assay type: cell-based, rat; details: RBL-2H3 cells

COC(=O)c1ccccc1-c1ccc(/C=C2/SC(=S)N(Cc3ccccc3)C2=O)o1 [Molecule C-13, methyl 2-{5-[(3-benzyl-4-oxo-2-thioxo-1,3-thiazolidin-5-ylidene)methyl]-2-furyl}benzoate]
colour of ears and tail (Evans blue extravasation) in PSA (BALB/c mice; oral administration of 130 mg/kg): light blue colour
hypothermia (drop in body temperature) in PSA (BALB/c mice; single oral dose of 100 mg/kg): inhibited hypothermia
phosphorylation of SLP-76 (SLP-76): inhibits
